The first assay concerns 233499-124-R-J3-PDC spheroids with HUVEC/MSC, viability. The assay can be described thus: Anticancer human tumor 233499-124-R-J3-PDC patient-derived colon adenocarcinoma cell line growth inhibition [PI3K]. To be noted: second compound 0.0316 µM; first compound 1 µM; hits give low values. A digest of the protocol: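 Complex 3D spheroids (cancer cells + endothelial HUVEC + mesenchymal stem cells); drug pairs of targeted agent x inavolisib/alpelisib/duvelisib/copanlisib; half-log series from ~Cmax, max 10 microM if Cmax unknown; endpoint viability.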
Take `CCCS(=O)(=O)Nc1ccc(F)c(C(=O)c2c[nH]c3ncc(-c4ccc(Cl)cc4)cc23)c1F` + COc1c(OCCCN2CCOCC2)ccc2c3n(c(=NC(=O)c4cnc(N)nc4)nc12)CCN3: the viability, T/C is 74.5%.
For `Cn1ncc(Cl)c1-c1cc(C(=O)NC(CN)Cc2cccc(F)c2)sc1Cl` (stereo unspecified) + CC(Nc1ccc2c(c1)OCCn1cc(N3C(=O)OCC3C(F)F)nc1-2)C(N)=O, the viability, T/C is 77.8%.
Turning to `CCCS(=O)(=O)Nc1ccc(F)c(C(=O)c2c[nH]c3ncc(-c4ccc(Cl)cc4)cc23)c1F` + CC(Nc1ccc2c(c1)OCCn1cc(N3C(=O)OCC3C(F)F)nc1-2)C(N)=O, the viability, T/C was 101%.

The same assay, now with this note: second compound 0.0316 µM; first compound 3.16 µM; hits give low values.
For `CCCS(=O)(=O)Nc1ccc(F)c(C(=O)c2c[nH]c3ncc(-c4ccc(Cl)cc4)cc23)c1F` + COc1c(OCCCN2CCOCC2)ccc2c3n(c(=NC(=O)c4cnc(N)nc4)nc12)CCN3, the viability, T/C was 77.6%.
On the same count and under the same terms, to `Cn1ncc(Cl)c1-c1cc(C(=O)NC(CN)Cc2cccc(F)c2)sc1Cl` (stereo unspecified) + CC(Nc1ccc2c(c1)OCCn1cc(N3C(=O)OCC3C(F)F)nc1-2)C(N)=O belongs 43.8%; to `CCCS(=O)(=O)Nc1ccc(F)c(C(=O)c2c[nH]c3ncc(-c4ccc(Cl)cc4)cc23)c1F` + CC(Nc1ccc2c(c1)OCCn1cc(N3C(=O)OCC3C(F)F)nc1-2)C(N)=O, 75.8%.

The assay is the same for the next values; noted with them: second compound 0.0316 µM; first compound 10 µM; hits give low values.
Turning to `CCCS(=O)(=O)Nc1ccc(F)c(C(=O)c2c[nH]c3ncc(-c4ccc(Cl)cc4)cc23)c1F` + COc1c(OCCCN2CCOCC2)ccc2c3n(c(=NC(=O)c4cnc(N)nc4)nc12)CCN3, the viability, T/C was 9.06%.
For `Cn1ncc(Cl)c1-c1cc(C(=O)NC(CN)Cc2cccc(F)c2)sc1Cl` (stereo unspecified) + CC(Nc1ccc2c(c1)OCCn1cc(N3C(=O)OCC3C(F)F)nc1-2)C(N)=O, the viability, T/C was 21.4%.
The same measure, in the same setting: as for `CCCS(=O)(=O)Nc1ccc(F)c(C(=O)c2c[nH]c3ncc(-c4ccc(Cl)cc4)cc23)c1F` + CC(Nc1ccc2c(c1)OCCn1cc(N3C(=O)OCC3C(F)F)nc1-2)C(N)=O, the figure is 1.54%.

Still in this assay, the particulars now being: second compound 0.1 µM; first compound 0.0316 µM; hits give low values.
As to `CCCS(=O)(=O)Nc1ccc(F)c(C(=O)c2c[nH]c3ncc(-c4ccc(Cl)cc4)cc23)c1F` + COc1c(OCCCN2CCOCC2)ccc2c3n(c(=NC(=O)c4cnc(N)nc4)nc12)CCN3, the viability, T/C is 50.2%.
Consider `Cn1ncc(Cl)c1-c1cc(C(=O)NC(CN)Cc2cccc(F)c2)sc1Cl` (stereo unspecified) + CC(Nc1ccc2c(c1)OCCn1cc(N3C(=O)OCC3C(F)F)nc1-2)C(N)=O, for which the viability, T/C is 97.4%.
Still for that read-out and setting: to `CCCS(=O)(=O)Nc1ccc(F)c(C(=O)c2c[nH]c3ncc(-c4ccc(Cl)cc4)cc23)c1F` + CC(Nc1ccc2c(c1)OCCn1cc(N3C(=O)OCC3C(F)F)nc1-2)C(N)=O belongs 84.8%.

The assay is the same for the next values; noted with them: second compound 0.1 µM; first compound 0.1 µM; hits give low values.
For `CCCS(=O)(=O)Nc1ccc(F)c(C(=O)c2c[nH]c3ncc(-c4ccc(Cl)cc4)cc23)c1F` + COc1c(OCCCN2CCOCC2)ccc2c3n(c(=NC(=O)c4cnc(N)nc4)nc12)CCN3, the viability, T/C is 56%.
Same read-out and setting: to `Cn1ncc(Cl)c1-c1cc(C(=O)NC(CN)Cc2cccc(F)c2)sc1Cl` (stereo unspecified) + CC(Nc1ccc2c(c1)OCCn1cc(N3C(=O)OCC3C(F)F)nc1-2)C(N)=O belongs 94.3%; to `CCCS(=O)(=O)Nc1ccc(F)c(C(=O)c2c[nH]c3ncc(-c4ccc(Cl)cc4)cc23)c1F` + CC(Nc1ccc2c(c1)OCCn1cc(N3C(=O)OCC3C(F)F)nc1-2)C(N)=O, 83.9%.

The assay is the same for the next values; noted with them: second compound 0.1 µM; first compound 0.316 µM; hits give low values.
Regarding `CCCS(=O)(=O)Nc1ccc(F)c(C(=O)c2c[nH]c3ncc(-c4ccc(Cl)cc4)cc23)c1F` + COc1c(OCCCN2CCOCC2)ccc2c3n(c(=NC(=O)c4cnc(N)nc4)nc12)CCN3, the viability, T/C was 54.5%.
The same measure, in the same setting: to `Cn1ncc(Cl)c1-c1cc(C(=O)NC(CN)Cc2cccc(F)c2)sc1Cl` (stereo unspecified) + CC(Nc1ccc2c(c1)OCCn1cc(N3C(=O)OCC3C(F)F)nc1-2)C(N)=O belongs 65.6%; to `CCCS(=O)(=O)Nc1ccc(F)c(C(=O)c2c[nH]c3ncc(-c4ccc(Cl)cc4)cc23)c1F` + CC(Nc1ccc2c(c1)OCCn1cc(N3C(=O)OCC3C(F)F)nc1-2)C(N)=O, 88.5%.

Still in this assay, the particulars now being: second compound 0.1 µM; first compound 1 µM; hits give low values.
Turning to `CCCS(=O)(=O)Nc1ccc(F)c(C(=O)c2c[nH]c3ncc(-c4ccc(Cl)cc4)cc23)c1F` + COc1c(OCCCN2CCOCC2)ccc2c3n(c(=NC(=O)c4cnc(N)nc4)nc12)CCN3, the viability, T/C is 51.5%.
The same measure, in the same setting: as for `Cn1ncc(Cl)c1-c1cc(C(=O)NC(CN)Cc2cccc(F)c2)sc1Cl` (stereo unspecified) + CC(Nc1ccc2c(c1)OCCn1cc(N3C(=O)OCC3C(F)F)nc1-2)C(N)=O, the figure is 67%.
Same read-out and setting: to `CCCS(=O)(=O)Nc1ccc(F)c(C(=O)c2c[nH]c3ncc(-c4ccc(Cl)cc4)cc23)c1F` + CC(Nc1ccc2c(c1)OCCn1cc(N3C(=O)OCC3C(F)F)nc1-2)C(N)=O belongs 88.3%.

The assay is the same for the next values; noted with them: second compound 0.1 µM; first compound 3.16 µM; hits give low values.
With `CCCS(=O)(=O)Nc1ccc(F)c(C(=O)c2c[nH]c3ncc(-c4ccc(Cl)cc4)cc23)c1F` + COc1c(OCCCN2CCOCC2)ccc2c3n(c(=NC(=O)c4cnc(N)nc4)nc12)CCN3, the viability, T/C is 52.7%.
`Cn1ncc(Cl)c1-c1cc(C(=O)NC(CN)Cc2cccc(F)c2)sc1Cl` (stereo unspecified) + CC(Nc1ccc2c(c1)OCCn1cc(N3C(=O)OCC3C(F)F)nc1-2)C(N)=O: the viability, T/C is 62.3%.
Regarding `CCCS(=O)(=O)Nc1ccc(F)c(C(=O)c2c[nH]c3ncc(-c4ccc(Cl)cc4)cc23)c1F` + CC(Nc1ccc2c(c1)OCCn1cc(N3C(=O)OCC3C(F)F)nc1-2)C(N)=O, the viability, T/C is 82.8%.

The same assay, now with this note: second compound 0.1 µM; first compound 10 µM; hits give low values.
With `CCCS(=O)(=O)Nc1ccc(F)c(C(=O)c2c[nH]c3ncc(-c4ccc(Cl)cc4)cc23)c1F` + COc1c(OCCCN2CCOCC2)ccc2c3n(c(=NC(=O)c4cnc(N)nc4)nc12)CCN3, the viability, T/C is 12.5%.
On the same count and under the same terms, as for `Cn1ncc(Cl)c1-c1cc(C(=O)NC(CN)Cc2cccc(F)c2)sc1Cl` (stereo unspecified) + CC(Nc1ccc2c(c1)OCCn1cc(N3C(=O)OCC3C(F)F)nc1-2)C(N)=O, the figure is 16.6%; as for `CCCS(=O)(=O)Nc1ccc(F)c(C(=O)c2c[nH]c3ncc(-c4ccc(Cl)cc4)cc23)c1F` + CC(Nc1ccc2c(c1)OCCn1cc(N3C(=O)OCC3C(F)F)nc1-2)C(N)=O, 0.93%.

The assay is the same for the next values; noted with them: second compound 0.316 µM; first compound 0.0316 µM; hits give low values.
As to `CCCS(=O)(=O)Nc1ccc(F)c(C(=O)c2c[nH]c3ncc(-c4ccc(Cl)cc4)cc23)c1F` + COc1c(OCCCN2CCOCC2)ccc2c3n(c(=NC(=O)c4cnc(N)nc4)nc12)CCN3, the viability, T/C is 33.7%.
Regarding `Cn1ncc(Cl)c1-c1cc(C(=O)NC(CN)Cc2cccc(F)c2)sc1Cl` (stereo unspecified) + CC(Nc1ccc2c(c1)OCCn1cc(N3C(=O)OCC3C(F)F)nc1-2)C(N)=O, the viability, T/C was 79%.
Same read-out and setting: to `CCCS(=O)(=O)Nc1ccc(F)c(C(=O)c2c[nH]c3ncc(-c4ccc(Cl)cc4)cc23)c1F` + CC(Nc1ccc2c(c1)OCCn1cc(N3C(=O)OCC3C(F)F)nc1-2)C(N)=O belongs 86.6%.

Still in this assay, the particulars now being: second compound 0.316 µM; first compound 0.1 µM; hits give low values.
Take `CCCS(=O)(=O)Nc1ccc(F)c(C(=O)c2c[nH]c3ncc(-c4ccc(Cl)cc4)cc23)c1F` + COc1c(OCCCN2CCOCC2)ccc2c3n(c(=NC(=O)c4cnc(N)nc4)nc12)CCN3: the viability, T/C was 35.8%.

Values taken from PubChem BioAssay AID1963984 (Molecular Pharmacology Branch, DTP, NCI, 2024).
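Note: spheroids exposed to agents for seven days before readout; percent viability relative to DMSO vehicle control taken as 100%.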
